{"source": "patent EP4818330A1", "about": "“PHARMACEUTICAL PREPARATION FOR DIAGNOSING AND TREATING ALZHEIMER'S DISEASE” (Shanghai East Hospital Tongji University, priority 2023, dated 2025)", "test_system": "APP/PS1 transgenic mice", "assay": "Morris water maze in APP/PS1 x Thy1-GFP mice", "type": "in vivo", "method": "Thy1-GFP mice are commonly used in neuroscience research. The fluorescence labeling of GFP facilitates convenient observation and tracking of specific cell types, especially neurons. APP/PS1 transgenic mice (an animal model of Alzheimer's disease) were crossed with Thy1-GFP mice. The crossed mice aged 5 months were intraperitoneally injected with a compound solution at a concentration of 2.5 mg/kg for 1 month continuously. Subsequently, the crossed mice aged 6 months were subjected to behavioral test (Morris water maze MWM experiment) to evaluate learning and memory abilities (as shown in FIG. 22).\nWater maze: A water maze experimental apparatus is circular stainless steel with a diameter of 100 cm and a height of 50 cm, wherein a pool is equally divided into 4 quadrants according to the 4 orientations of east, south, west and north, a circular black hidden platform with a diameter of 9 cm and a height of 27 cm is placed in the center of the target quadrant. […] The movement trajectory of the mouse was synchronously recorded by the camera directly above the water pool, and analyzed by the EthovisionXT monitoring and analysis system. […] The mouse swam in the water for 60 s, and the percentage of time the mouse spent in the target platform quadrant was recorded, representing the learning and memory ability of the mouse.", "note": "Several values for one entry are separate records, joined by “and”; a condition that tells them apart may be missing. Equal values may be shown once."}
{"smiles": "CCOC(=O)c1[nH]c(C)c(CCC(=O)N2CCCC(C(=O)NCCN3CCCCCC3)C2)c1C", "note": "(centres unmarked) [compound of Formula I, ETHYL4-[3-(3-{[2-(AZEPAN-1-YL)ETHYL]CARBAMOYL}PIPERIDIN-1-YL)-3-OXOPROPYL]-3, 5-DIMETHYL-1H-PYRROLE-2-CARBOXYLATE]", "values": [{"measurement": "time percentage in the platform quadrant", "setting": "APP/PS1+ intervention, IP 2.5 mg/kg for 1 month, day 7 spatial exploration, individual animals, 2.5 mg/kg", "value": "12.17% and 26.78% and 27.89% and 19.335% and 31.945% and 22% and 29.11%"}, {"measurement": "time percentage of mice in the platform quadrant", "setting": "after compound intervention vs APP/PS1 mice", "value": "increased"}]}
